In paper PMC9220922, “Givinostat-Liposomes: Anti-Tumor Effect on 2D and 3D Glioblastoma Models and Pharmacokinetics” (Cancers, 2022):
Values belong to the compound of their own block, whether it stands above or below them.

Legend:
U87-MG = test system: U87-MG; design: method as in PMID 25053824; details: cited from earlier work
T98G = test system: T98G; design: method as in PMID 25053824; details: cited from earlier work
[1] = MTT cytotoxicity, healthy astrocytes; format: cell-based; details: human, normal human astrocytes (NHA), doses between 0.1 and 10 μM, read-out: cell viability
Method: (§1) Gli36ΔEGFR-2 and U87-MG were used as GBM in vitro models. Gli36ΔEGFR [27, 28], carrying the EGFRvIII mutation, was made resistant to TMZ after 1 month of in vitro exposure to 50 µM TMZ [29]. These cells were selected because the TMZ sensitivity was repeatedly tested in vitro and in vivo in orthotopic GBM models. Both Gli36ΔEGFR-2 and U87-MG were maintained in Dulbecco’s Modified Eagle Medium (DMEM) High Glucose w/o sodium pyruvate (ECM0101L, Euroclone, Milan, Italy) supplemented with 10% fetal bovine serum (FBS, ECS0180L, Euroclone, Milan, Italy), 4 mM L-glutamine (ECB3000D, Euroclone, Milan, Italy), and 100 U ml^−1 penicillin/streptomycin (P/S) (ECB3001B, Euroclone, Milan, Italy). Normal human astrocytes (NHAs, CC-2565, Lonza, Basel, Switzerland) were used as healthy astrocytes and maintained in AGM^TM Astrocyte Growth Medium BulletKit^TM (CC-3186, Lonza) as per the manufacturer’s protocol. Human cerebral microvascular endothelial cells (hCMECs), provided by Dr. S. Bourdoulous (Institut Cochin, Inserm, Paris, France), were used as a model of brain endothelial cells and cultured as reported in the literature. […]
(§2) The effect of free or encapsulated Givinostat was assessed by the MTT assay. […] At the designated times, the assay was performed as per the manufacturer’s protocol and absorbance was measured at 570 nm using a microplate reader (SPECTROstar Nano, BMG LABTECH, Ortenberg, Germany). […]

Gli36ΔEGFR-2 = test: MTT cytotoxicity, GBM cells; format: cell-based; details: Homo sapiens, 24 h of treatment, read-out: mean calculated IC50
Method: as §1, §2

[2] = Brain penetration after i.v. injection (LC-MS/MS); format: in vivo, Swiss CD1 mice; details: mice
Method: (§3) Mice were sacrificed at different time points up to 48 h after the injection and blood and brain were harvested. Blood was collected from the cava vein in tubes coated with Li-heparin anticoagulant and centrifuged at +4 °C, 3000 g for 10 min to obtain the plasma. After blood collection, brain was harvested, washed in saline, dried on absorbent paper, weighed, and placed into appropriate tubes. All samples were analyzed for their Givinostat content using the LC-MS/MS method. Stock solution of Givinostat, […]2375 (metabolites), and internal standard ITF2400 were prepared in ACN/water 1:1 at 1 mg/mL. Working solutions were prepared by sequential dilution in water:ACN 8:2. Brains were homogenized in 20 mM ammonium formate buffer (1 g/5 mL). In total, 45 μL of blank plasma or brain homogenates was added to 200 μL of ACN containing ITF2400 at 25 ng/mL and acted as internal standards. Samples were vortexed for 3 min and centrifuged for 10 min at 5 °C at […]. Samples were transferred into a 96-well plate, dried under nitrogen flow, and resuspended in 200 μL 0.1% FA H2O/ACN (75:25). After vortexing, samples were injected into LC-MS/MS. Samples were analyzed on a UPLC Acquity (Waters, Milford, MA, USA) coupled with an API 3200 Triple Quadrupole (ABSciex). Mobile phases were water and ACN with 0.1% FA on a Kinetex 2.6 μm C18 100 A 75 × 3 mm (Phenomenex, Torrance, CA, USA). Analytes were quantified in MRM ESI positive mode. […] Pharmacokinetic parameters were calculated using Excel Add in (PK Solver 2.0, Excel 2007 Microsoft add in). AUCs were calculated using an NCA by the linear trapezoidal rule, and a uniform weight was performed as a first approach. Graphical concentration-time curves were produced after Log transformation. The ke was estimated from the terminal part of the log-concentration-time plot including at least three data points excluding the Cmax.

[3] = Plasma pharmacokinetics after i.v. injection (LC-MS/MS); format: in vivo; details: Swiss CD1, mouse, iv, mice
Method: as §3

ABCA1 = test: Immunoblot of ABCA1 level in Gli36ΔEGFR-2; format: cell-based, human; details: Western blot; Figure 8 legend: LIP-GIV, 24 h
Method: (§4) Whole cell lysates were obtained by washing cells twice in cold PBS and harvesting in 60 μL of radioimmunoprecipitation assay (RIPA) buffer (cat. no. 89901, ThermoFisher) supplemented with 1% of protease and phosphatase inhibitor cocktail (cat. no. 78446, ThermoFisher). Whole cell lysates were quantified using a BCA Protein Assay Kit (cat. No. 23227, ThermoFisher) and separated by electrophoresis through precast gels (NuPAGE^TM 4–12% Bis-Tris, 1.0 mm, Mini Protein Gel 10 or 15-wells, cat. No. NP0321 and NP0323, ThermoFisher).
Proteins were transferred to nitrocellulose membranes using iBlot^TM Transfer Stack (cat. No. IB301002, ThermoFisher) and membranes were blocked either in 5% milk or in 5% BSA in TBS with 0.1% Tween-20 (TBST) for 1 h. […] Bands were detected using Immobilion ECL Ultra Western HRP Substrate (WBULS0100, Merck) under chemiluminescence using an Amersham Imager 600 (Cytiva, Marlborough MA, USA). Quantifications were made using ImageLab Software Version 6.1 (Bio-Rad, www.bio-rad.com).

LDLR = test: Immunoblot of receptor level in Gli36ΔEGFR-2; format: cell-based, human; details: Western blot; Figure 8 legend: LIP-GIV
Method: as §4
(§5) Proteins were transferred to nitrocellulose membranes using iBlot^TM Transfer Stack (cat. No. IB301002, ThermoFisher) and membranes were blocked either in 5% milk or in 5% BSA in TBS with 0.1% Tween-20 (TBST) for 1 h. Membranes were then incubated overnight at 4 °C with the following primary antibodies: Acetyl-α-Tubulin (5335, 1:1000), α-Tubulin (2144, 1:1000), Histone H3 (9715, 1:1000) and β-Tubulin (2146, 1:1000) purchased from CST; β-Actin (MA5-15739, 1:5000), GAPDH (MA1-16757, 1:5000), VLDLR (MA5-24790, 1:1000), ABCA1 (PA1-16789, 1:500), LRP1 (MA1-27198, 1:500), and LDLR (PA5-22976, 1:1000) purchased from ThermoFisher. Membranes were incubated with secondary anti-rabbit antibody (A0545, 1:5000, Merck) or anti-mouse antibody (G21040, 1:20,000, Invitrogen) for 1 h at RT. Bands were detected using Immobilion ECL Ultra Western HRP Substrate (WBULS0100, Merck) under chemiluminescence using an Amersham Imager 600 (Cytiva, Marlborough MA, USA). Quantifications were made using ImageLab Software Version 6.1 (Bio-Rad, www.bio-rad.com).

LRP1 = test: Immunoblot of receptor level in Gli36ΔEGFR-2; format: cell-based, human; details: Western blot; Figure 8 legend: LIP-GIV
Method: as §4, §5

VLDLR = test: Immunoblot of receptor level in Gli36ΔEGFR-2; format: cell-based, human; details: Western blot; Figure 8 legend: LIP-GIV
Method: as §4, §5

Compound: Cn1nnc2c(C(N)=O)ncn2c1=O [TMZ, temozolomide]
IC50 (U87-MG): 100 to 500 µM
IC50 (T98G): 100 to 500 µM

Kp ([2]; Swiss CD1, mouse, brain and plasma, iv, 7.5 mg/kg single i.v., read-out: AUCbrain/AUCplasma ratio): 0.372
concentration at 5 min ([2]; Swiss CD1, mouse, brain, iv, 7.5 mg/kg i.v., 5 min, read-out: Givinostat brain level): 102 ng/g
concentration at 10 min ([2]; Swiss CD1, mouse, brain, iv, 7.5 mg/kg i.v., 10 min, read-out: Givinostat brain level): 101 ng/g
concentration at 0.25 h ([2]; Swiss CD1, mouse, brain, iv, 7.5 mg/kg i.v., 0.25 h, read-out: Givinostat brain level): 90 ng/g
concentration at 0.5 h ([2]; Swiss CD1, mouse, brain, iv, 7.5 mg/kg i.v., 0.5 h, read-out: Givinostat brain level): 83 ng/g
concentration at 1 h ([2]; Swiss CD1, mouse, brain, iv, 7.5 mg/kg i.v., 1 h, read-out: Givinostat brain level): 44 ng/g
concentration at 2 h ([2]; Swiss CD1, mouse, brain, iv, 7.5 mg/kg i.v., 2 h, read-out: Givinostat brain level): 30 ng/g
concentration at 4 h ([2]; Swiss CD1, mouse, brain, iv, 7.5 mg/kg i.v., 4 h, read-out: Givinostat brain level): 13 ng/g
concentration at 6 h ([2]; Swiss CD1, mouse, brain, iv, 7.5 mg/kg i.v., 6 h, read-out: Givinostat brain level): 7 ng/g
Cmax ([2]; Swiss CD1, mouse, brain, iv, 7.5 mg/kg single i.v.): ~100 ng/g
Givinostat brain level ([2]; 7.5 mg/kg i.v., 24 h): below detection limits
concentration at 5 min ([3]; 7.5 mg/kg i.v., 5 min, read-out: Givinostat plasma level): 1030 ng/mL
concentration at 10 min ([3]; 7.5 mg/kg i.v., 10 min, read-out: Givinostat plasma level): 597 ng/mL
concentration at 0.25 h ([3]; 7.5 mg/kg i.v., 0.25 h, read-out: Givinostat plasma level): 431 ng/mL
concentration at 0.5 h ([3]; 7.5 mg/kg i.v., 0.5 h, read-out: Givinostat plasma level): 256 ng/mL
concentration at 1 h ([3]; 7.5 mg/kg i.v., 1 h, read-out: Givinostat plasma level): 75 ng/mL
concentration at 2 h ([3]; 7.5 mg/kg i.v., 2 h, read-out: Givinostat plasma level): 19 ng/mL
concentration at 4 h ([3]; 7.5 mg/kg i.v., 4 h, read-out: Givinostat plasma level): 6 ng/mL
concentration at 6 h ([3]; 7.5 mg/kg i.v., 6 h, read-out: Givinostat plasma level): 4 ng/mL
MRT last ([3]; 7.5 mg/kg single i.v., read-out: mean residence time (MRT0-t)): 36 min
clearance ([3]; 7.5 mg/kg single i.v., read-out: plasma clearance (CL) (converted)): 257 mL/min/kg
AUC(0-t) ([3]; 7.5 mg/kg single i.v., read-out: plasma exposure (AUC0-t)): 478 ng·h/mL
Vd ([3]; 7.5 mg/kg single i.v., read-out: volume of distribution): 10.8 L/kg
half-life ([3]; Givinostat 7.5 mg/kg single i.v., read-out: half-life (t1/2) (converted)): 102 min
LDLR protein level (LDLR): significantly reduced
LRP1 protein level (LRP1): significantly reduced
VLDLR protein level (VLDLR): significantly reduced
Compound: CCN(CC)Cc1ccc2cc(COC(=O)Nc3ccc(C(=O)NO)cc3)ccc2c1 [Givinostat, [6-diethylaminomethyl) naphtalen-2-yl] methyl N-[4-(hydroxycarbamoyl) phenyl] carbamate]
viability at 24 h [1]: ≥ 100%
IC50 (Gli36ΔEGFR-2): 750 nM
ABCA1 expression (ABCA1): non-significant trend towards a decrease
